Measured values published in patent US10851073B2, “Protein tyrosine phosphatase inhibitors and methods of use thereof” (Calico Life Sciences LLC, priority 2019, dated 2020).

How the values were obtained:
[1] = molecular target: T1, His tagged PTPN2 (TC45) protein (Homo sapiens, UniProt P17706); assay: Mobility shift assay used to determine potency of PTPN2 inhibitors; format: biochemical; conditions: enzyme 0.5 nM, substrate 2 μM; read-out: PTPN2 MSA IC50
T1 construct: made in house
T1 sequence (P17706 with tags, fused parts or gaps isoform P17706-2): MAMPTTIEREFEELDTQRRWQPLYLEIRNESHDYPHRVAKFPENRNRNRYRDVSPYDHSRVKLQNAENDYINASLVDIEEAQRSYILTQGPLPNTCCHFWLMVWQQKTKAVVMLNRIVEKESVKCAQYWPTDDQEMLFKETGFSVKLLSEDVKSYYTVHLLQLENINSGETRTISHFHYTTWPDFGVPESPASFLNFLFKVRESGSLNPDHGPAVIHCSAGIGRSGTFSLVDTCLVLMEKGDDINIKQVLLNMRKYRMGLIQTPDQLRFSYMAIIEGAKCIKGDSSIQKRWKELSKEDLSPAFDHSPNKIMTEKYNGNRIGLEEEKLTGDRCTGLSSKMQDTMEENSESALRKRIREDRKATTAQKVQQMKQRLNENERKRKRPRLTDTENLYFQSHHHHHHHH
Method in brief: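 Enzyme (0.5 nM) preincubated with compound (12-point, 1:3 dilution) 10 min at room temperature in 50 mM HEPES pH 7.5, 1 mM EGTA, 10 mM EDTA, 0.01% Tween 20, 2 mM DTT; OG488-labelled phospho-insulin-receptor peptide substrate (2 μM) added for 10 min, then quenched. Microfluidic mobility shift (ex 488/em 530 nm) gave % conversion; IC50 from % inhibition.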

[2] = molecular target: T2, His tagged full-length PTPN1 protein (Homo sapiens, UniProt P18031); assay: Mobility shift assay (MSA) used to determine potency of PTPN1 inhibitors; format: biochemical; conditions: enzyme 0.5 nM, substrate 2 μM
T2 construct: made in house
T2 sequence (P18031 with tags, fused parts or gaps): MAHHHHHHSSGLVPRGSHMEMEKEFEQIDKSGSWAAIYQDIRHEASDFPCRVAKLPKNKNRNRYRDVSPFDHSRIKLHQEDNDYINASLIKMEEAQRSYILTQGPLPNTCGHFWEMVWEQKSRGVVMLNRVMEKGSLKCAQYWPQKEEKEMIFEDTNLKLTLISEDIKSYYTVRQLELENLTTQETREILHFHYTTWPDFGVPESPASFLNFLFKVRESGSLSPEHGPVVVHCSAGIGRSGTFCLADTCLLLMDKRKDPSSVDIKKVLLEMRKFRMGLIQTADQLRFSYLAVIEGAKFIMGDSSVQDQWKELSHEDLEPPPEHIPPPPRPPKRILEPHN
Method in brief: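 Full-length His-tagged human PTPN1 (0.5 nM) was preincubated 10 min at room temperature with compound (12-point, 1:3 dilution) in HEPES pH 7.5 buffer with EGTA, EDTA, Tween 20 and DTT. A 2 μM fluorescent phospho-insulin receptor peptide was then added for 10 min before quench. Mobility-shift % conversion gave % inhibition and IC50.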

[3] = test system: B16F10 mouse melanoma cells; assay: B16F10 IFNγ-induced cellular growth inhibition assay; format: cell-based; conditions: B16-F10, with 0.5 ng/mL IFNγ, read-out: B16F10 GI IC50
Method in brief: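 B16F10 cells grown in DMEM+10% FBS, with or without 0.5 ng/mL final mouse IFNγ, and dosed in triplicate at 100 μM to 0.001 μM final (0.1% DMSO). Confluence imaged every 6 h for 5 days; percent growth inhibition versus DMSO/with-IFNγ control taken once DMSO/no-IFNγ wells exceeded 95% confluence, giving IC50.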

Row | IC50 [2] | IC50 [3] | SMILES | IC50 [1]
1 | 1 to 10 nM | < 1000 nM | CC(C)CCNC1CCc2cc(O)c(N3CC(=O)NS3(=O)=O)c(F)c2C1 (stereo not drawn) [Compound 102, 5-{1-fluoro-3-hydroxy-7-[(3-methylbutyl)amino]-5,6,7,8-tetrahydronaphthalen-2-yl}-1λ^6,2,5-thiadiazolidine-1,1,3-trione] | < 1 nM
2 | > 100 nM | 1000 to 10000 nM | O=C1CN(c2c(O)cc3c(c2F)CC(NCCO)CC3)S(=O)(=O)N1 (stereo not drawn) [Compound 180, 5-{1-fluoro-3-hydroxy-7-[(2-hydroxyethyl)amino]-5,6,7,8-tetrahydronaphthalen-2-yl}-1λ^6,2,5-thiadiazolidine-1,1,3-trione] | 10 to 100 nM
3 | 1 to 10 nM | 10000 to 100000 nM | CC(C)CCN(CCC(C)C)CC1Cc2cc(O)c(N3CC(=O)NS3(=O)=O)c(F)c2C1 (stereo not drawn) [Compound 269, 5-(2-{[bis(3-methylbutyl)amino]methyl}-4-fluoro-6-hydroxy-2,3-dihydro-1H-inden-5-yl)-1λ^6,2,5-thiadiazolidine-1,1,3-trione] | 1 to 10 nM
4 | 1 to 10 nM | 1000 to 10000 nM | O=C1CN(c2c(O)cc3c(c2F)CC(NCCC(O)(C(F)(F)F)C(F)(F)F)CC3)S(=O)(=O)N1 (stereo not drawn) [Compound 130, 5-(1-fluoro-3-hydroxy-7-{[4,4,4-trifluoro-3-hydroxy-3-(trifluoromethyl)butyl]amino}-5,6,7,8-tetrahydronaphthalen-2-yl)-1λ^6,2,5-thiadiazolidine-1,1,3-trione] | 1 to 10 nM
5 | 1 to 10 nM | < 1000 nM | CC(C)CCCNC1CCc2cc(O)c(N3CC(=O)NS3(=O)=O)c(F)c2C1 (stereo not drawn) [Compound 129, 5-{1-fluoro-3-hydroxy-7-[(4-methylpentyl)amino]-5,6,7,8-tetrahydronaphthalen-2-yl}-1λ^6,2,5-thiadiazolidine-1,1,3-trione] | 1 to 10 nM
6 | 10 to 100 nM | 1000 to 10000 nM | CC(C)C1CCN(C2CCc3cc(O)c(N4CC(=O)NS4(=O)=O)c(F)c3C2)C1 (stereo not drawn) [Compound 172, 5-{1-fluoro-3-hydroxy-7-[3-(propan-2-yl)pyrrolidin-1-yl]-5,6,7,8-tetrahydronaphthalen-2-yl}-1λ^6,2,5-thiadiazolidine-1,1,3-trione] | 10 to 100 nM
7 | 1 to 10 nM | 1000 to 10000 nM | CC(C)(C#N)CCNC1CCc2cc(O)c(N3CC(=O)NS3(=O)=O)c(F)c2C1 (stereo not drawn) [Compound 150, 4-{[8-fluoro-6-hydroxy-7-(1,1,4-trioxo-1λ^6,2,5-thiadiazolidin-2-yl)-1,2,3,4-tetrahydronaphthalen-2-yl]amino}-2,2-dimethylbutanenitrile] | 1 to 10 nM
8 | 1 to 10 nM | < 1000 nM | CC(C)(O)CCNC1CCc2cc(O)c(N3CC(=O)NS3(=O)=O)c(F)c2C1 (stereo not drawn) [Compound 127, 5-{1-fluoro-3-hydroxy-7-[(3-hydroxy-3-methylbutyl)amino]-5,6,7,8-tetrahydronaphthalen-2-yl}-1λ^6,2,5-thiadiazolidine-1,1,3-trione] | 1 to 10 nM
9 | 1 to 10 nM | 1000 to 10000 nM | O=C1CN(c2c(O)cc3c(c2F)CC(NCC(F)(F)CC2CC2)CC3)S(=O)(=O)N1 (stereo not drawn) [Compound 126, 5-{7-[(3-cyclopropyl-2,2-difluoropropyl)amino]-1-fluoro-3-hydroxy-5,6,7,8-tetrahydronaphthalen-2-yl}-1λ^6,2,5-thiadiazolidine-1,1,3-trione] | 1 to 10 nM
10 | 1 to 10 nM | 1000 to 10000 nM | O=C1CN(c2c(O)cc3c(c2F)CC(NCC[C@H]2C[C@@H](OC(F)(F)F)C2)CC3)S(=O)(=O)N1 (stereo partly drawn) [Compound 234, 5-[1-fluoro-3-hydroxy-7-({2-[(1s,3r)-3-(trifluoromethoxy)cyclobutyl]ethyl}amino)-5,6,7,8-tetrahydronaphthalen-2-yl]-1λ^6,2,5-thiadiazolidine-1,1,3-trione] | 10 to 100 nM
11 | 1 to 10 nM | < 1000 nM | CC(C)(CO)CCN[C@@H]1CCc2cc(O)c(N3CC(=O)NS3(=O)=O)c(F)c2C1 (single isomer, unassigned) [Compound 308] | 1 to 10 nM
12 | 1 to 10 nM | < 1000 nM | O=C1CN(c2c(O)cc3c(c2F)CC(NCCC(C(F)(F)F)C(F)(F)F)CC3)S(=O)(=O)N1 (stereo not drawn) [Compound 131, 5-(1-fluoro-3-hydroxy-7-{[4,4,4-trifluoro-3-(trifluoromethyl)butyl]amino}-5,6,7,8-tetrahydronaphthalen-2-yl)-1λ^6,2,5-thiadiazolidine-1,1,3-trione] | 1 to 10 nM
13 | 1 to 10 nM | < 1000 nM | O=C1CN(c2c(O)cc3c(c2F)CC(NCCC2CCC2)CC3)S(=O)(=O)N1 (stereo not drawn) [Compound 185, 5-{7-[(2-cyclobutylethyl)amino]-1-fluoro-3-hydroxy-5,6,7,8-tetrahydronaphthalen-2-yl}-1λ^6,2,5-thiadiazolidine-1,1,3-trione] | 1 to 10 nM
14 | 1 to 10 nM | < 1000 nM | O=C1CN(c2c(O)cc3c(c2F)CC(NCCC(F)F)CC3)S(=O)(=O)N1 (stereo not drawn) [Compound 223, 5-{7-[(3,3-difluoropropyl)amino]-1-fluoro-3-hydroxy-5,6,7,8-tetrahydronaphthalen-2-yl}-1λ^6,2,5-thiadiazolidine-1,1,3-trione] | 10 to 100 nM
15 | 10 to 100 nM | 1000 to 10000 nM | O=C1CN(c2c(O)cc3c(c2F)CC(NCCC(O)C(F)(F)F)CC3)S(=O)(=O)N1 (stereo not drawn) [Compound 151, 5-{1-fluoro-3-hydroxy-7-[(4,4,4-trifluoro-3-hydroxybutyl)amino]-5,6,7,8-tetrahydronaphthalen-2-yl}-1λ^6,2,5-thiadiazolidine-1,1,3-trione] | 1 to 10 nM
16 | 10 to 100 nM | 10000 to 100000 nM | CO[C@@H]1CCc2cc(O)c(N3CC(=O)NS3(=O)=O)c(F)c2C1 (single isomer, unassigned) [Compound 104] | 10 to 100 nM
17 | 10 to 100 nM | 10000 to 100000 nM | O=C1CN(c2c(O)cc3c(c2F)CC(NCC(F)(F)c2ccccc2)CC3)S(=O)(=O)N1 (stereo not drawn) [Compound 125, 5-{7-[(2,2-difluoro-2-phenylethyl)amino]-1-fluoro-3-hydroxy-5,6,7,8-tetrahydronaphthalen-2-yl}-1λ^6,2,5-thiadiazolidine-1,1,3-trione] | 1 to 10 nM
18 | 1 to 10 nM | < 1000 nM | CC(C)C(O)CNC1CCc2cc(O)c(N3CC(=O)NS3(=O)=O)c(F)c2C1 (stereo not drawn) [Compound 187, 5-{1-fluoro-3-hydroxy-7-[(2-hydroxy-3-methylbutyl)amino]-5,6,7,8-tetrahydronaphthalen-2-yl}-1λ^6,2,5-thiadiazolidine-1,1,3-trione] | 1 to 10 nM
19 | 1 to 10 nM | 10000 to 100000 nM | O=C1CN(c2c(O)cc3c(c2F)C[C@@H]([C@@H]2CCN(S(=O)(=O)C4CC4)C2)CC3)S(=O)(=O)N1 (single isomer, unassigned) [Compound 137, 5-{(7RS)-7-[(3RS)-1-(cyclopropanesulfonyl)pyrrolidin-3-yl]-1-fluoro-3-hydroxy-5,6,7,8-tetrahydronaphthalen-2-yl}-1λ^6,2,5-thiadiazolidine-1,1,3-trione] | < 1 nM
20 | 1 to 10 nM | < 1000 nM | O=C1CN(c2c(O)cc3c(c2F)CC(NCCC2(C(F)(F)F)CC2)CC3)S(=O)(=O)N1 (stereo not drawn) [Compound 124, 5-[1-fluoro-3-hydroxy-7-({2-[1-(trifluoromethyl)cyclopropyl]ethyl}amino)-5,6,7,8-tetrahydronaphthalen-2-yl]-1λ^6,2,5-thiadiazolidine-1,1,3-trione] | 1 to 10 nM

Row | SMILES | IC50 [2] | IC50 [3] | IC50 [1]
21 | CCCCNC1CCc2cc(O)c(N3CC(=O)NS3(=O)=O)c(F)c2C1 (stereo not drawn) [Compound 175, 5-[7-(butylamino)-1-fluoro-3-hydroxy-5,6,7,8-tetrahydronaphthalen-2-yl]-1λ^6,2,5-thiadiazolidine-1,1,3-trione] | 10 to 100 nM | < 1000 nM | 1 to 10 nM
